In brackets after ≈: the same amount, converted by molar mass. Read-outs that look alike come from different tables or passages of the source.
How the values were obtained:
Type in all cases: cell-based
[1] = test system: Endothelial cell line HUVEC; experiment: Inhibitory activity on cells, CellTiter-Glo viability, HUVEC; conditions: Homo sapiens, 72 hours treatment
Description: (§1) HUVEC (purchased from Allcells Biological Technology (Shanghai) Co., Ltd.); UM-UC-3 (ATCC); LNCaP (ATCC); RM-1 (purchased from Nanjing Cobioer Biosciences Co., Ltd.) (1) On the first day, the cells were seeded in a 96-well plate, and the previous medium was poured off. 5 mL of DPBS was added to wash the cells, and then removed by a pipette and discarded. Then, 1 mL of trypsin (0.25%) was added, and the plate was placed in a cell culture incubator at 37 °C, 5% CO2 for digestion, and taken out after about 2 to 5 minutes. New corresponding medium was added, and pipetted to resuspend the cells evenly, and the cells were then counted with an automated cell counter. Regarding HUVEC, the medium used was endothelial cell complete medium; regarding UM-UC-3, the medium used was 89 v % EMEM+10 v % fetal bovine serum+1 v % penicillin-streptomycin double anti-body; regarding LNcaP, the medium used was 89 v % RPM11640+10 v % fetal bovine serum+1 v % penicillin-streptomycin double anti-body; and regarding RM1, the medium used was 89 v % DMEM+10 v % fetal bovine serum+1 v % penicillin-streptomycin double anti-body. (2) HUVEC cells were seeded in columns 1 to 11 of a 96-well plate (Corning, Cat. No. 3610) at a density of 2000 cells per well in 100 μL of medium, and the medium free of cell was added to the wells of column 12. The other three types of cells were also seeded, wherein UM-UC-3 and RM-1 cells were seeded at a density of 3000 cells per well, and LNCap cells were seeded at a density of 5000 cells per well. Then, the plate was placed in an incubator at 37° C., 5% CO2 for 24 hours. (3) On the second day, the compounds of the present invention and the reference drug nitroxoline (obtained according to the preparation method disclosed in the prior art) were diluted in gradient (2.5 folds, started at 100 μmol) to obtain 8 dose points (there were a total of 8 columns of wells; the first column of wells had the highest concentration, the concentration decreased in turn, and the last column of wells had the lowest concentration). 10 μL of the compound diluted in gradient was added to the 100 μL of cells in column 1 to column 10 with an 8-channel pipette. 10 μL of the corresponding medium containing 0.33 v % DMSO was added to column 11 and column 12. The plate was incubated in an incubator at 37° C., 5% CO2 for 72 hours (note: column 11 was used as MAX well with cells and no compounds; and column 12 was used as MIN well with no cells and no compounds). (4) After treating with the compounds of the present invention for 72 hours, the cell viability detection reagents in the above CellTiter-Glo® assay kit were added to the 96-well plate at 50 μL per well according to the instructions. The plate was shaken on a shaker in the dark for 5 to 10 minutes, and then the cell activity was determined by a multifunctional microplate reader. Finally, the growth inhibition of the compounds of the present invention on the cells was plotted by XLFIT 5.3 software, and the IC50 values of the compounds of the present invention were calculated.

[2] = test system: Bladder cancer cell line UM-UC-3; experiment: Inhibitory activity on cancer cells, CellTiter-Glo viability, UM-UC-3; conditions: Homo sapiens, UMUC3, 72 hours treatment
Description: as §1

[3] = test system: Prostate cancer cell line LNcaP; experiment: Inhibitory activity on cancer cells, CellTiter-Glo viability, LNcaP; conditions: Homo sapiens, 72 hours treatment
Description: as §1

[4] = test system: Escherichia coli (carbapenem-resistant clinical isolate; ATCC25922); experiment: MIC by micro broth dilution (CLSI), Escherichia coli; conditions: Escherichia coli
Method in brief: (§2)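 CAMHB microdilution; DMSO stocks, range 128–0.06 mg/L; inoculum 10^5 CFU/mL (0.5 McFarland, 1:100); 35±2° C, 20 h, air; CLSI M100 2019 interpretation.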

[5] = test system: Acinetobacter baumannii (carbapenem-resistant clinical isolates; ATCC19606); experiment: MIC by micro broth dilution (CLSI), Acinetobacter baumannii; conditions: Acinetobacter baumannii; for MIC50 / MIC90: ATCC19606
Method in brief: as §2

[6] = test system: Staphylococcus aureus (methicillin-resistant and sensitive clinical isolates; ATCC29213); experiment: MIC by micro broth dilution (CLSI), Staphylococcus aureus
Method in brief: as §2

[7] = ATCC25922, Clinical strain, read-out: MIC50
[8] = ATCC25922, Clinical strain, read-out: MIC90
[9] = Standard strain ATCC25922, read-out: MIC
[10] = Clinical strain, read-out: MIC50
[11] = Clinical strain, read-out: MIC90
[12] = Standard strain ATCC19606, read-out: MIC
[13] = Standard strain ATCC29213, read-out: MIC

| Compound | IC50 [1] [µM] | IC50 [2] [µM] | IC50 [3] [µM] | MIC50 [4, 7] [µg/mL] | MIC90 [4, 8] [µg/mL] | MIC [4, 9] [µg/mL] | MIC50 [5, 10] [µg/mL] | MIC90 [5, 11] [µg/mL] | MIC [5, 12] [µg/mL] | MIC50 [6, 10] [µg/mL] | MIC90 [6, 11] [µg/mL] | MIC [6, 13] [µg/mL] | also measured |
| --- | --- | --- | --- | --- | --- | --- | --- | --- | --- | --- | --- | --- | --- |
| O=[N+]([O-])c1ccc2c(N3CCOCC3)ccnc2c1O [Example 14, 4-Morpholino-7-nitroquinolin-8-ol] | 10.9 | 6.1 | 8.7 | 128 (≈ 465 µM) | 128 (≈ 465 µM) | > 128 | 128 (≈ 465 µM) | > 128 | > 128 | 128 (≈ 465 µM) | 128 (≈ 465 µM) | 128 (≈ 465 µM) | – |
| CN(C)c1ccnc2c(O)c([N+](=O)[O-])ccc12 [Example 17, 4-(Dimethylamino)-7-nitroquinolin-8-ol] | 27.4 | 16.9 | 23.6 | 64 (≈ 274 µM) | 64 (≈ 274 µM) | 128 (≈ 549 µM) | 128 (≈ 549 µM) | 128 (≈ 549 µM) | 128 (≈ 549 µM) | 128 (≈ 549 µM) | 128 (≈ 549 µM) | 128 (≈ 549 µM) | – |
| O=[N+]([O-])c1ccc2c(N3CCCC3)ccnc2c1O [Example 13, 7-Nitro-4-(pyrrolidin-1-yl)quinolin-8-ol] | > 50 | 38 | 35.4 | > 128 | > 128 | > 128 | > 128 | > 128 | > 128 | > 128 | > 128 | > 128 | – |
| O=[N+]([O-])c1ccc2c(-n3ccnc3)ccnc2c1O [Example 15, 4-(1H-Imidazol-1-yl)-7-nitroquinolin-8-ol] | 32.3 | 36.2 | 35.2 | 128 (≈ 500 µM) | 128 (≈ 500 µM) | > 128 | > 128 | > 128 | > 128 | 64 (≈ 250 µM) | 128 (≈ 500 µM) | 128 (≈ 500 µM) | – |
| O=[N+]([O-])c1ccc2c(Br)ccnc2c1O [Example 16, 4-Bromo-7-nitroquinolin-8-ol] | 8.1 | 8.9 | 3.9 | 16 (≈ 59.5 µM) | 16 (≈ 59.5 µM) | 32 (≈ 119 µM) | 8 (≈ 29.7 µM) | 8 (≈ 29.7 µM) | 32 (≈ 119 µM) | 8 (≈ 29.7 µM) | 8 (≈ 29.7 µM) | 8 (≈ 29.7 µM) | – |
| CN1CCN(c2ccnc3c(O)c([N+](=O)[O-])ccc23)CC1 [Example 18, 4-(4-Methylpiperazinyl)-7-nitroquinolin-8-ol] | 64.4 | 13.2 | 21.2 | 128 (≈ 444 µM) | 128 (≈ 444 µM) | 128 (≈ 444 µM) | 128 (≈ 444 µM) | 128 (≈ 444 µM) | 128 (≈ 444 µM) | 128 (≈ 444 µM) | 128 (≈ 444 µM) | 128 (≈ 444 µM) | – |
| O=[N+]([O-])c1ccc2c(NC3COC3)ccnc2c1O [Example 19, 7-Nitro-4-(3-oxetanylamino)quinolin-8-ol] | > 100 | > 100 | > 100 | – | – | – | – | – | – | – | – | – | – |
| O=[N+]([O-])c1ccc2cc(CN3CCCCC3)cnc2c1O [Example 95, 7-nitro-3-(piperidin-1-ylmethyl)quinolin-8-ol] | – | – | – | 64 (≈ 223 µM) | 64 (≈ 223 µM) | 64 (≈ 223 µM) | 64 (≈ 223 µM) | 64 (≈ 223 µM) | 32 (≈ 111 µM) | 64 (≈ 223 µM) | 64 (≈ 223 µM) | 64 (≈ 223 µM) | – |
| [2H]c1cc2cccnc2c(O)c1[N+](=O)[O-] [Example 117, 7-nitroquinolin-6-d-8-ol] | – | – | – | 8 (≈ 41.8 µM) | 16 (≈ 83.7 µM) | 8 (≈ 41.8 µM) | 4 (≈ 20.9 µM) | 4 (≈ 20.9 µM) | 4 (≈ 20.9 µM) | 4 (≈ 20.9 µM) | 8 (≈ 41.8 µM) | 4 (≈ 20.9 µM) | – |
| Cl.Cl.Cl.O=[N+]([O-])c1cc(CN2CCNCC2)c2cccnc2c1O [Example 101, 7-nitro-5-(piperazin-1-ylmethyl)quinolin-8-ol trihydrochloride] | – | – | – | > 128 | > 128 | > 128 | > 128 | > 128 | > 128 | > 128 | > 128 | > 128 | – |
| O=[N+]([O-])c1c(Br)c(F)c2cccnc2c1O [Example 124, 6-bromo-5-fluoro-7-nitroquinolin-8-ol] | – | – | – | – | – | – | – | – | – | – | – | – | MIC50 ([4]; clinical strains, micro broth dilution, CAMHB, 35±2° C., 20 hours, read-out: MIC50 Escherichia coli Clinical strain): 16 µg/mL (≈ 55.7 µM); MIC90 ([4]; clinical strains, micro broth dilution, CAMHB, 35±2° C., 20 hours, read-out: MIC90 Escherichia coli Clinical strain): 64 µg/mL (≈ 223 µM); MIC ([4]; standard strain ATCC25922, micro broth dilution, CAMHB, 35±2° C., 20 hours, read-out: MIC Escherichia coli Standard strain ATCC25922): 8 µg/mL (≈ 27.9 µM); MIC50 ([5]; clinical strains, micro broth dilution, CAMHB, 35±2° C., 20 hours, read-out: MIC50 Acinetobacter baumannii Clinical strain): 4 µg/mL (≈ 13.9 µM); MIC90 ([5]; clinical strains, micro broth dilution, CAMHB, 35±2° C., 20 hours, read-out: MIC90 Acinetobacter baumannii Clinical strain): 8 µg/mL (≈ 27.9 µM); MIC ([5]; standard strain ATCC19606, micro broth dilution, CAMHB, 35±2° C., 20 hours, read-out: MIC Acinetobacter baumannii Standard strain ATCC19606): 8 µg/mL (≈ 27.9 µM); MIC50 ([6]; clinical strains, micro broth dilution, CAMHB, 35±2° C., 20 hours, read-out: MIC50 Staphylococcus aureus Clinical strain): 4 µg/mL (≈ 13.9 µM); MIC90 ([6]; clinical strains, micro broth dilution, CAMHB, 35±2° C., 20 hours, read-out: MIC90 Staphylococcus aureus Clinical strain): 4 µg/mL (≈ 13.9 µM); MIC ([6]; standard strain ATCC29213, micro broth dilution, CAMHB, 35±2° C., 20 hours, read-out: MIC Staphylococcus aureus Standard strain ATCC29213): 4 µg/mL (≈ 13.9 µM) |

— US20240246916A1, “7-NITRO-8-HYDROXYQUINOLINE DERIVATIVES, PREPARATION METHOD THEREFORE AND MEDICAL USE THEREOF” (Jiangsu Yahong Meditech Co., Ltd., priority 2021, published 2024)
